# Measurements from paper PMC5460189, “Melon13-lipoxygenase CmLOX18 may be involved in C6 volatiles biosynthesis in fruit” (Scientific Reports, 2017).
# Test system: T1, CmLOX18
# T1 construct: ORF in pYES2.1 TOPO-TA, His-tagged (anti-His), expressed in Saccharomyces cerevisiae INVSc1, purified
# Assay: increase in A234, Michaelis-Menten plot
# Format: biochemical, Cucumis melo
# Conditions: substrate 15-350 μM, pH and temperature of the kinetic runs not stated (optimum pH 4.5, 30 °C)
SMILES,Km [µM],"Km (linolenic acid isomer not given, alpha assumed) [µM]"
CCCCC/C=C\C/C=C\CCCCCCCC(=O)O [Linoleic acid],127 ± 18.6,–
CC/C=C\C/C=C\C/C=C\CCCCCCCC(=O)O [Linolenic acid],–,40.7 ± 2.65
